Experimental data reported in patent US11326992B2 (priority 2016, dated 2022).

Experiments:
[1] = Short term on-card stability; settings: day 28, stored in the presence of air (RT+Air and −20° C.+Air)
[2] = morphine value marked (base); cited from earlier work
[3] = Blood:Plasma binding ratio of guanfacine test sample; format: in vitro ADME; settings: whole blood sample; read-out: Blood:Plasma binding ratio (Ke/p)
Protocol: The multilayer device of the invention was tested using a known hypertension and ADHD drug, guanfacine, with its [^13C, ^15N3] internal standard, Guanfacine (C9H9Cl2N3O) has a monoisotopic mass of 245.0123 Da, while the internal standard [^13C, ^15N3]-guanfacine (^13CC8H9Cl2^15N3O) has a monoisotopic mass of 249.0067 Da. These compounds were tested using a whole blood sample with a Blood:Plasma binding ratio (Ke/p) of 1.5 and analyzed using LC-MS/MS bioanalysis following the protocol described here.

[4] = High QC 900 ng/mL, ANOVA p<0.0001

Compound | on-card stability [1, 4] | on-card stability ([1]; LLOQ 5 ng/mL, ANOVA) | pKa [2] | blood plasma ratio [3]
COc1ccc2c3c1O[C@H]1C(=O)CC[C@H]4[C@@H](C2)N(C)CC[C@]314 [Hydrocodone] | significant decompositions | significant decomposition |  | 
CNC(C)Cc1ccc2c(c1)OCO2 (centres unmarked) [MDMA, 3,4-methylenedioxymethamphetamine] |  |  | 9.9 | 
CNC(C)C(=O)c1ccc(C)cc1 (centres unmarked) [Mephedrone] | significant decompositions | significant decomposition | 9.0 | 
CNC(C)Cc1ccccc1 (centres unmarked) [Methamphetamine] |  |  | 9.9 | 
COc1ccc2c3c1O[C@H]1C(=O)CC[C@@]4(O)[C@@H](C2)N(C)CC[C@]314 [Oxycodone] | significant decompositions | significant decomposition |  | 
CC(C)(N)Cc1ccccc1 [Phentermine] |  |  | 10.1 | 
N=C(N)NC(=O)Cc1c(Cl)cccc1Cl [guanfacine] |  |  |  | 1.5
